Data taken from ChEMBL document CHEMBL1156271, “Discovery and SAR of novel pyrazole-based thioethers as cathepsin S inhibitors: part 1” (Bioorg Med Chem Lett, 2010).

These compounds were tested against T1, Cathepsin S (Homo sapiens, UniProt P25774) (assay: Inhibition of human cathepsin S).
T1 sequence (P25774 whole entry): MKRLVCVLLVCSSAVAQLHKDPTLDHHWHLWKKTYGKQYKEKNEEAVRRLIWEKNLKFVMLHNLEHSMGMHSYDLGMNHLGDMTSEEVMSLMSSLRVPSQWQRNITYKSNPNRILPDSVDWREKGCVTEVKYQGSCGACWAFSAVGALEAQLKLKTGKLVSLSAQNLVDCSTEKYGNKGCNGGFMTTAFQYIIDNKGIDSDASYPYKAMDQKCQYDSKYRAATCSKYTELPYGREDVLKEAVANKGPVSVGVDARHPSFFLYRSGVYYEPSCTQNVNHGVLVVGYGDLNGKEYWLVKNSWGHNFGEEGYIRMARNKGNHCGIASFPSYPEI

How did the IC50 turn out when `CS(=O)(=O)N1CCc2c(c(-c3ccc(Cl)c(SCCO)c3)nn2CCCN2CCOCC2)C1` was run?
Its IC50 is 960 nM.

Which IC50 does the source give for `CS(=O)(=O)N1CCc2c(c(-c3ccc(C(F)(F)F)c(SCCN4CCC5CCCCC5C4)c3)nn2CCCN2CCC(N3CCCC3=O)CC2)C1` (centres undefined) here?
Its IC50 is 55 nM.

The compounds below were run against T1, Cathepsin S (assay: Inhibition of cathepsin S in human JY cells assessed as inhibition of invariant chain degradation).
Format: cell-based

`CS(=O)(=O)N1CCc2c(c(-c3ccc(C(F)(F)F)c(SCCN4CCCCC4)c3)nn2CCCN2CCCC2)C1` was tested. Which IC50 did it give?
The IC50 was 470 nM.

With `CN1CCN(CCSc2cc(-c3nn(CCCN4CCC(N5CCCC5=O)CC4)c4c3CN(S(C)(=O)=O)CC4)ccc2C(F)(F)F)CC1` as the compound, how does the IC50 read?
The IC50 was 130 nM.

Which IC50 does the source give for `CS(=O)(=O)N1CCc2c(c(-c3ccc(C(F)(F)F)c(SCCNCc4ccccc4)c3)nn2CCCN2CCC(N3CCCC3=O)CC2)C1` here?
The IC50 was 460 nM.

Which IC50 does the source give for `CS(=O)(=O)N1CCc2c(c(-c3ccc(C(F)(F)F)c(SCCN4CCCC4)c3)nn2CCCN2CCC(N3CCCC3=O)CC2)C1` here?
Its IC50 is 80 nM.

`CS(=O)(=O)N1CCc2c(c(-c3ccc(C(F)(F)F)c(SCCN4CCC(O)CC4)c3)nn2CCCN2CCC(N3CCCC3=O)CC2)C1` was tested. Which IC50 did it give?
The IC50 was 350 nM.

With `CS(=O)(=O)N1CCc2c(c(-c3ccc(C(F)(F)F)c(SCCN4CCOCC4)c3)nn2CCCN2CCC(N3CCCC3=O)CC2)C1` as the compound, how does the IC50 read?
Its IC50 is 680 nM.

With `CS(=O)(=O)N1CCc2c(c(-c3ccc(C(F)(F)F)c(SCCN4CCC(c5ccccc5)CC4)c3)nn2CCCN2CCC(N3CCCC3=O)CC2)C1` as the compound, how does the IC50 read?
Its IC50 is 950 nM.

For `CC(C)(C)C1CCN(CCSc2cc(-c3nn(CCCN4CCC(N5CCCC5=O)CC4)c4c3CN(S(C)(=O)=O)CC4)ccc2C(F)(F)F)CC1`, which IC50 is on record?
Its IC50 is 330 nM.

With `CC1CCN(CCSc2cc(-c3nn(CCCN4CCC(N5CCCC5=O)CC4)c4c3CN(S(C)(=O)=O)CC4)ccc2C(F)(F)F)CC1` as the compound, how does the IC50 read?
The IC50 was 810 nM.

How did the IC50 turn out when `CS(=O)(=O)N1CCc2c(c(-c3ccc(C(F)(F)F)c(SCCN4CCC5CCCCC5C4)c3)nn2CCCN2CCC(N3CCCC3=O)CC2)C1` (centres undefined) was run?
Its IC50 is 460 nM.

`CS(=O)(=O)N1CCc2c(c(-c3ccc(C(F)(F)F)c(SCCN4CCCCC4)c3)nn2CCCN2CCOCC2)C1` was tested. Which IC50 did it give?
The IC50 was 3570 nM.

With `CS(=O)(=O)N1CCc2c(c(-c3ccc(C(F)(F)F)c(SCCN4CCCCC4)c3)nn2CCCN2CCC(N3CCCC3)CC2)C1` as the compound, how does the IC50 read?
Its IC50 is 320 nM.
